In general, IC50 refers to the concentration at which inhibition is half-maximal. A high value points to weaker potency in that assay. One may read the inhibition as the share of the control response that was lost under treatment. Low readings indicate little suppression, high ones strong suppression.

SMILES strings stand for the structures.

From ChEMBL document CHEMBL3351757, “Design and synthesis of novel and highly-active pan-histone deacetylase (pan-HDAC) inhibitors” (Bioorg Med Chem, 2014) come the findings set out here.

Experiment [1] concerns the target Histone deacetylase 1 (Homo sapiens, UniProt Q13547). As to the kind of experiment: Inhibition of human HDAC1 pre-incubated for 30 mins before substrate addition and measured after 30 mins by HDAC-Glo I/II assay.
Experiment [2] deals with Histone deacetylase 2 (Homo sapiens, UniProt Q92769). Kind of experiment: Inhibition of human HDAC2 pre-incubated for 30 mins before substrate addition and measured after 30 mins by HDAC-Glo I/II assay.
Experiment [3] has as its target Histone deacetylase 3 (Homo sapiens, UniProt O15379). Kind of experiment: Inhibition of human HDAC3 pre-incubated for 30 mins before substrate addition and measured after 30 mins by HDAC-Glo I/II assay.
Experiment [4] deals with T1, Histone deacetylase 8 (Homo sapiens, UniProt Q9BY41).
T1 sequence (Q9BY41 whole entry): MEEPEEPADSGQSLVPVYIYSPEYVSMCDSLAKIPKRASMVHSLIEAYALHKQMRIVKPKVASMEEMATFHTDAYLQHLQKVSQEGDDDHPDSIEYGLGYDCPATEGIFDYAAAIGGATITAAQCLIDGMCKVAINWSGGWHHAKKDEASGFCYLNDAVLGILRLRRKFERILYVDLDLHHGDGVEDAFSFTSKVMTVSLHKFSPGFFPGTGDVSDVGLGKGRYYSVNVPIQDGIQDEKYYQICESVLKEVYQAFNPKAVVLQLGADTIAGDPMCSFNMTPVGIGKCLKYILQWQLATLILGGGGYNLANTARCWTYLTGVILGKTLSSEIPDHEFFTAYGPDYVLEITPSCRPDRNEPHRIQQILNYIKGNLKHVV
Kind of experiment: Inhibition of human HDAC8 pre-incubated for 30 mins before substrate addition and measured after 30 mins by HDAC-Glo I/II assay.

The target of experiment [5] is Histone deacetylase 4 (Homo sapiens, UniProt P56524). Kind of experiment: Inhibition of human HDAC4 pre-incubated for 30 mins before substrate addition and measured after 30 mins by HDAC-Glo I/II assay.
The target of experiment [6] is Histone deacetylase 9 (Homo sapiens, UniProt Q9UKV0). Kind of experiment: Inhibition of human HDAC9 pre-incubated for 30 mins before substrate addition and measured after 30 mins by HDAC-Glo I/II assay.
Experiment [7] concerns the target T2, Protein deacetylase HDAC6 (Homo sapiens, UniProt Q9UBN7).
T2 sequence (Q9UBN7 whole entry): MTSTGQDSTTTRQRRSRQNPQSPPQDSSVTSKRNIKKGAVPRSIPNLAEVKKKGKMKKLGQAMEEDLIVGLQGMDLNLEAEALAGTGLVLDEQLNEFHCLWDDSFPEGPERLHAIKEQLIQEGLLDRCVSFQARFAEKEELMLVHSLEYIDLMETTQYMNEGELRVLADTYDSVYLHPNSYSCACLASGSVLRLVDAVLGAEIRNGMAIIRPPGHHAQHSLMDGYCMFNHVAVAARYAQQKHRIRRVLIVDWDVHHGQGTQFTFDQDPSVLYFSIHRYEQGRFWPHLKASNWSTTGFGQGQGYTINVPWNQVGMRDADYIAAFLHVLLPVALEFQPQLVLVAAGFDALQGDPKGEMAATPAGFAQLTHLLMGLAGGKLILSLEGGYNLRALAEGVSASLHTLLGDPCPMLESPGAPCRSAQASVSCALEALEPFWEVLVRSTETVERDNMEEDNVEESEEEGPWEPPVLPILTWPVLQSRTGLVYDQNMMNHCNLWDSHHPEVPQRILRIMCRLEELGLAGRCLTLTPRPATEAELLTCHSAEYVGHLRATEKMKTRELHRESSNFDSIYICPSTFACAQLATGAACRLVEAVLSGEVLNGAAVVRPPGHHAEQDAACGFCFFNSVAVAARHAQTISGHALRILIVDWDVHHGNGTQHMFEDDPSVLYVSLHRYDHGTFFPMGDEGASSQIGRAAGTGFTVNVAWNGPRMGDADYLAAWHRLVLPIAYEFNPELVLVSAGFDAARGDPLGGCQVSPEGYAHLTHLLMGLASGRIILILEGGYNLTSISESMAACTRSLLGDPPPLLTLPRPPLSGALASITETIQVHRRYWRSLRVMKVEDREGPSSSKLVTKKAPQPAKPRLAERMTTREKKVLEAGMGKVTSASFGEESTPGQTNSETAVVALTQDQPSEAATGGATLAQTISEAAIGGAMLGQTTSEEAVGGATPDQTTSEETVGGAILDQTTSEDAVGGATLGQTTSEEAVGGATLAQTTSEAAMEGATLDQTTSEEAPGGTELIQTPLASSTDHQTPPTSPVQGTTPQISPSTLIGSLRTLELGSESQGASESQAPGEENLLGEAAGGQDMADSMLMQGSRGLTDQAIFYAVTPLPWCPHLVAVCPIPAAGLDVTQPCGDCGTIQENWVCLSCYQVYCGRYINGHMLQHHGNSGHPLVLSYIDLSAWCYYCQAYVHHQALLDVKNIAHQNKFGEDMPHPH
Kind of experiment: Inhibition of human HDAC6 pre-incubated for 30 mins before substrate addition and measured after 30 mins by HDAC-Glo I/II assay.

Experiment [8] deals with T3, Histone deacetylase (Rattus norvegicus) (UniProt Q6P6W3+Q99P99+Q99P96+Q4QQW4+Q99P97+Q5RJZ2+B1WBY8). Particulars: at 10 µM.
Description: Inhibition of rat liver HDAC at 10 uM pre-incubated for 15 mins before Boc-Lys(Ac)-AMC substrate addition and measured after 30 mins by fluorometry
For experiment [9], the target named is T3, Histone deacetylase (Rattus norvegicus). The conditions noted are these: at 0.1 µM.
Description: Inhibition of rat liver HDAC at 0.1 uM pre-incubated for 15 mins before Boc-Lys(Ac)-AMC substrate addition and measured after 30 mins by fluorometry

Chain of Histone deacetylase 2 (Q92769 whole entry): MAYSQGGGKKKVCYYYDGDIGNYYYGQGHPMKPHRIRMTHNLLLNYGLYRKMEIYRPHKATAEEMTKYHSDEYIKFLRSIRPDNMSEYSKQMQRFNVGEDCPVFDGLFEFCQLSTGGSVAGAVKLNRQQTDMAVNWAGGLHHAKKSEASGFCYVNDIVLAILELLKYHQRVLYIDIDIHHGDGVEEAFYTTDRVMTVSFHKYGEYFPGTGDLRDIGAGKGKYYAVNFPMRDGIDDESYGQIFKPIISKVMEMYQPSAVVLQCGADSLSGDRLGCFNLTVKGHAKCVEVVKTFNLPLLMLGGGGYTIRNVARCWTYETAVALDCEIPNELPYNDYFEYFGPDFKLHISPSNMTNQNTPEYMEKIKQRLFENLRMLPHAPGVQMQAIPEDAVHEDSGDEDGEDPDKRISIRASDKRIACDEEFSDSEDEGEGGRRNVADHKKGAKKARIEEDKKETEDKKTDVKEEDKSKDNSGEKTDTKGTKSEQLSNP
Chain of Histone deacetylase 9 (Q9UKV0 whole entry): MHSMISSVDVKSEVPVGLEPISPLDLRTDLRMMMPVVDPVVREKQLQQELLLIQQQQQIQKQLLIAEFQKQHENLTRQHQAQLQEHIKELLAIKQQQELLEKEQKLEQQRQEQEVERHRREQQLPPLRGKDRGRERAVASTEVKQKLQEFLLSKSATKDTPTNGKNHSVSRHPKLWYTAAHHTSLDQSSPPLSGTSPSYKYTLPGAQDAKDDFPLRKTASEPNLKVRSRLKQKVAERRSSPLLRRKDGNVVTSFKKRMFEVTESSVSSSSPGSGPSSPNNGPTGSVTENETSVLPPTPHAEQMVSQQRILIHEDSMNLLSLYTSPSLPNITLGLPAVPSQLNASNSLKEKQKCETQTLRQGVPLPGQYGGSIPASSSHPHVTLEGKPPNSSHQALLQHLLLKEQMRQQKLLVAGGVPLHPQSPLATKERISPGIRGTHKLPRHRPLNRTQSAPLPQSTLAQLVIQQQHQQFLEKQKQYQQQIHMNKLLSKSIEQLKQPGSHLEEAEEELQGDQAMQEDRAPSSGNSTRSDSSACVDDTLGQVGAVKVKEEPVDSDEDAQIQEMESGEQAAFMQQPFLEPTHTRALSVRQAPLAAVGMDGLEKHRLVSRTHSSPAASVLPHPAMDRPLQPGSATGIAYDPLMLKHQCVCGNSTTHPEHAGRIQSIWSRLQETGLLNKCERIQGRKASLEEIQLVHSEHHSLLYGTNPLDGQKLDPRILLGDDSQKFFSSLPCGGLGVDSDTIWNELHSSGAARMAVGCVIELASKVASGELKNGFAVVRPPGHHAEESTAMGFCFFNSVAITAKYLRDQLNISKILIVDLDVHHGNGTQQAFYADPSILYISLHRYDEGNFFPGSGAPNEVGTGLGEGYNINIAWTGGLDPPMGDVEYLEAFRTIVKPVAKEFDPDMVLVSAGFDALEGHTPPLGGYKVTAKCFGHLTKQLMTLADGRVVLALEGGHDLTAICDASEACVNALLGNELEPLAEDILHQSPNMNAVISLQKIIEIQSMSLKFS
Chain of Histone deacetylase 3 (O15379 whole entry): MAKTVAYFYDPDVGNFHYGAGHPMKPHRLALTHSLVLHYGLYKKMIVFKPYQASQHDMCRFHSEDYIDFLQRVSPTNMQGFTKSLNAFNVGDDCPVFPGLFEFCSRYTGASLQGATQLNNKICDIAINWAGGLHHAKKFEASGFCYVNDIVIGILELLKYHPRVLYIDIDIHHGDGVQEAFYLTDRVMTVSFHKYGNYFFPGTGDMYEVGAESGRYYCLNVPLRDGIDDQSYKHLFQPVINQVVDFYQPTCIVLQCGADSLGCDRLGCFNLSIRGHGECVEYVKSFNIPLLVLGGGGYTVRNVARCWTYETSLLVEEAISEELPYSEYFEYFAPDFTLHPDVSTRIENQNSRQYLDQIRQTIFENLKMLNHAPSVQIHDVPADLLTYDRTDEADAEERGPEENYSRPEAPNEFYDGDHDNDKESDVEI
Chain of Histone deacetylase 1 (Q13547 whole entry): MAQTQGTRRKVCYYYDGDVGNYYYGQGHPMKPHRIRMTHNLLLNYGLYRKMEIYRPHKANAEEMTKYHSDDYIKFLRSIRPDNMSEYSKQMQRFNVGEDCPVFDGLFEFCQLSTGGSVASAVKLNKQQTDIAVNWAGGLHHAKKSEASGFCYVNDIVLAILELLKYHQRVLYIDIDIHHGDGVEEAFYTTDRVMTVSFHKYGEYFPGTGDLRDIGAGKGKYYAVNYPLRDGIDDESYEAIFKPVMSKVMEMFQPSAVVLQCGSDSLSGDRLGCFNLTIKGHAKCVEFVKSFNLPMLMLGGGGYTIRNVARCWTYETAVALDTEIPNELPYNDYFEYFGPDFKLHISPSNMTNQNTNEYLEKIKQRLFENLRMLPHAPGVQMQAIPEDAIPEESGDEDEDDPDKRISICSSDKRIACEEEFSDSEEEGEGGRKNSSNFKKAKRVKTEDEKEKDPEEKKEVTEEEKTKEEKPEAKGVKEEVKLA
Chain of Histone deacetylase 4 (P56524 whole entry): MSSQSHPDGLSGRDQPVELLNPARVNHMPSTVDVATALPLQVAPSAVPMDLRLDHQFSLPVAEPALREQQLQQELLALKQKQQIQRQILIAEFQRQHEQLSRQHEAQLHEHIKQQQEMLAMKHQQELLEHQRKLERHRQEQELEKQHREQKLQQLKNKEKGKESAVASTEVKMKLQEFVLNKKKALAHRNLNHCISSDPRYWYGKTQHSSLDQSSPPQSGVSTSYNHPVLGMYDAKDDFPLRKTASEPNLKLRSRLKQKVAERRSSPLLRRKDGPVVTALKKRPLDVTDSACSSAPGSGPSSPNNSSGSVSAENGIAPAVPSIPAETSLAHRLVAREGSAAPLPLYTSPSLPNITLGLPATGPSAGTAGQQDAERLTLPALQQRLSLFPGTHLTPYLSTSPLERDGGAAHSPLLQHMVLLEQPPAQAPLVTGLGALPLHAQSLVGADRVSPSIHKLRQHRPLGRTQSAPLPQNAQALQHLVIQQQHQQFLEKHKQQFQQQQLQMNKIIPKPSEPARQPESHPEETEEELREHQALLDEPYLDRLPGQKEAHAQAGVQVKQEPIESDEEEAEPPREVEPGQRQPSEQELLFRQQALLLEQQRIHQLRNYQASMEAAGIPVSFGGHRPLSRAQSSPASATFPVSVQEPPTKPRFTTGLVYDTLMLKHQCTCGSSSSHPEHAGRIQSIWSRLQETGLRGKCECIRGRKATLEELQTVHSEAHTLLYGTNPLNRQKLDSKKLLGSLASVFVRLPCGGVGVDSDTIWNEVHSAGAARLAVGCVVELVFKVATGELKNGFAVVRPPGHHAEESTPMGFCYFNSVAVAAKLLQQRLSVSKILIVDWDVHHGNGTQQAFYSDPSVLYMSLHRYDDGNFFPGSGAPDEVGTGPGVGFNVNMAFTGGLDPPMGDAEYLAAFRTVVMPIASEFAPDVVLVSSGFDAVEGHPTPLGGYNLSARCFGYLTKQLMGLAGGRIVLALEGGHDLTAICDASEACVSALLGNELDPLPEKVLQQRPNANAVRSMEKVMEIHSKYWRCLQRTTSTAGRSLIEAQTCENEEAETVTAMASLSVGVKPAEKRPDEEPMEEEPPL

Turning to `CC1(C)CC(=O)Nc2ccc(C(=O)NC[C@H]3CC[C@@H](/C=C/C(=O)NO)CC3)cc21`, the IC50 in [1] is 190 nM; in experiment [2], 310 nM; in experiment [3], 370 nM; in experiment [4] it was 21 nM; in experiment [5], 750 nM; in [6] it was 91 nM. In addition, 720 nM corresponded to half-maximal inhibition in experiment [7] (IC50). Also, the inhibition in experiment [8] stood at 92%; in experiment [9], 22%.

For the compound `O=C(CCCCCCCNC(=O)c1ccc2c(c1)CCC(=O)N2)NO`, the inhibition in experiment [8] turned out to be 98%; in experiment [9] it was 40%.

As to `O=C(CCCCCCNC(=O)c1ccc2[nH]c(=O)ccc2c1)NO`, the IC50 in [1] worked out at 24 nM; in experiment [2], 25 nM; in experiment [3] it was 180 nM; in experiment [4], 73 nM; in experiment [5], 280 nM; in experiment [6], 46 nM. In experiment [7], the IC50 turned out to be 280 nM. The figures for the inhibition in experiment [8] and in experiment [9] were 100% and 68%, respectively.

With `Cn1c(=O)ccc2cc(C(=O)NCCCCCCC(=O)NO)ccc21`, the IC50 in experiment [1] came out at 89 nM; in experiment [2], 90 nM; in [3] it was 98 nM; in experiment [4], 72 nM; in [5], 86 nM; in [6] it was 41 nM. This compound also gave an IC50 in [7] of 86 nM. In addition, the inhibition was found to be 99% in [8] and 63% in experiment [9].

Take `CN1C(=O)CC(C)(C)c2cc(NC(=O)CCCCCCC(=O)NO)ccc21`: the inhibition worked out at 98% in experiment [8] and 55% in [9].

With `CC1(C)CC(=O)Nc2ccc(C(=O)NC[C@H]3CC[C@@H](CCC(=O)NO)CC3)cc21`, the IC50 came to 41 nM in experiment [1]; 25 nM in experiment [2]; 87 nM in experiment [3]; 24 nM in experiment [4]; 330 nM in experiment [5]; 50 nM in [6]. The compound further yielded an IC50 in experiment [7] of 530 nM. Moreover, the inhibition turned out to be 97% in [8] and 27% in [9].

For `CC1(C)CC(=O)Nc2cc(OCCCCCC(=O)NO)ccc21`, the inhibition is 91% in [8] and 11% in [9].

`O=C(CCCCCCC(=O)Nc1ccc2c(c1)CCC(=O)N2)NO`: the IC50 came out at 14 nM in experiment [1]; 18 nM in [2]; 91 nM in [3]; 94 nM in experiment [4]; 120 nM in experiment [5]; 25 nM in experiment [6]. Besides, inhibition in experiment [7] was half-maximal at 630 nM (IC50). Besides, the inhibition was determined as 98% in [8] and 51% in experiment [9].

Take `CC1(C)CC(=O)Nc2cc(C(=O)NCc3cccc(/C=C/C(=O)NO)c3)ccc21`: the inhibition in experiment [8] is 96%; in experiment [9], 27%.

In the case of `O=C(CCCCCOc1cccc2c1NC(=O)CC2)NO`, the figures for the inhibition in experiment [8] and in experiment [9] were 80% and 4%, respectively.

`CN1C(=O)CCc2cc(C(=O)NCCCCCCC(=O)NO)ccc21`: the inhibition amounted to 99% in experiment [8] and 51% in experiment [9].

`O=C(CCCCCC(=O)Nc1ccc2c(c1)CCC(=O)N2)NO`: the inhibition in experiment [8] was found to be 95%; in [9], 24%.

Take `O=C(CCCCCOc1cccc2c1CCC(=O)N2)NO`: the inhibition was determined as 86% in [8] and 7% in experiment [9].

For the compound `CC1(C)CC(=O)Nc2ccc(C(=O)NCCCCCCC(=O)NO)cc21`, the IC50 was found to be 30 nM in [1]; 93 nM in experiment [2]; 69 nM in experiment [3]; 55 nM in experiment [4]; 63 nM in experiment [5]; 39 nM in [6]. The compound further registered an IC50 in [7] of 92 nM. For the same compound, the inhibition in [8] came to 98%; in [9], 44%.

For the compound `CN1C(=O)CC(C)(C)c2cc(C(=O)NCCCCCCC(=O)NO)ccc21`, the IC50 in experiment [1] worked out at 43 nM; in experiment [2], 100 nM; in experiment [3], 28 nM; in experiment [4], 59 nM; in experiment [5], 280 nM; in experiment [6] it was 120 nM. In experiment [7], it took 130 nM to reach half-maximal inhibition (IC50). Moreover, the inhibition in experiment [8] was determined as 99%; in [9], 50%.

Turning to `CC1(C)CC(=O)Nc2c(F)cc(NC(=O)CCCCCCC(=O)NO)cc21`, the values for the inhibition in experiment [8] and in [9] were 99% and 49%, respectively.

In the case of `CC1(C)CC(=O)Nc2c(F)cc(C(=O)NCCCCCCC(=O)NO)cc21`, the inhibition in [8] was found to be 99%; in [9], 57%.

For the compound `CC1(C)CC(=O)Nc2cc(C(=O)NCCCCCCC(=O)NO)ccc21`, the values for the inhibition in experiment [8] and in experiment [9] were 99% and 63%, respectively.

`O=C(CCCCCCNS(=O)(=O)c1ccc2c(c1)CCC(=O)N2)NO`: the inhibition came out at 94% in experiment [8] and 15% in experiment [9].

Turning to `O=C(CCCCCOc1ccc2c(c1)CCC(=O)N2)NO`, the inhibition in experiment [8] turned out to be 91%; in [9], 13%.

With `O=C(CCCCCCC(=O)Nc1ccc2oc(=O)ccc2c1)NO`, the inhibition in experiment [8] worked out at 98%; in experiment [9], 46%.

As for `O=C(CCCCCOc1ccc2[nH]c(=O)ccc2c1)NO`, the values for the inhibition in experiment [8] and in [9] were 94% and 19%, respectively.

For the compound `CC1(C)CC(=O)Nc2ccc(OCCCCCC(=O)NO)cc21`, the inhibition came out at 88% in [8] and 11% in [9].

Turning to `O=C(CCCCCOc1ccc2c(c1)NC(=O)CC2)NO`, the values for the inhibition in experiment [8] and in experiment [9] were 91% and 13%, respectively.

Turning to `O=C(CCCCCCNS(=O)(=O)c1ccc2[nH]c(=O)ccc2c1)NO`, the inhibition is 94% in experiment [8] and 18% in [9].

As to `COC1=Nc2ccc(NC(=O)CCCCCCC(=O)NO)cc2C(C)(C)C1`, the results for the inhibition in experiment [8] and in [9] were 99% and 52%, respectively.

Consider `O=C(CCCCCCCC(=O)Nc1ccc2c(c1)CCC(=O)N2)NO`, for which the inhibition in experiment [8] amounted to 97%; in experiment [9], 30%.

In the case of `CCOC1=Nc2ccc(NC(=O)CCCCCCC(=O)NO)cc2C(C)(C)C1`, the results for the inhibition in [8] and in experiment [9] were 97% and 42%, respectively.

With `O=C(CCCCCNC(=O)c1ccc2c(c1)CCC(=O)N2)NO`, the results for the inhibition in experiment [8] and in experiment [9] were 94% and 21%, respectively.

Consider `O=C(CCCCCOc1cccc2ccc(=O)[nH]c12)NO`, for which the figures for the inhibition in [8] and in experiment [9] were 86% and 7%, respectively.

For the compound `CC1(C)CC(=O)Nc2ccc(S(=O)(=O)NCCCCCCC(=O)NO)cc21`, the inhibition stood at 94% in [8] and 17% in [9].

For the compound `O=C(CCCCCOc1ccc2oc(=O)ccc2c1)NO`, the inhibition in experiment [8] stood at 91%; in experiment [9], 12%.

As for `O=C(CCCCCOc1ccc2ccc(=O)[nH]c2c1)NO`, the results for the inhibition in [8] and in experiment [9] were 93% and 21%, respectively.

Turning to `O=C(CCCOc1ccc2c(c1)CCC(=O)N2)NO`, the inhibition is 65% in experiment [8] and 9% in experiment [9].

`O=C(CCCCCCS(=O)(=O)Nc1ccc2c(c1)CCC(=O)N2)NO`: the inhibition was 91% in experiment [8] and 11% in [9].
